Reference: US20100130604A1, “USE OF ROSMARINIC ACID IN MANUFACTURE OF MEDICAMENTS FOR TREATING OR PREVENTING HEPATIC AND RENAL DISEASES” (SHANGDONG LUYE NATURAL DRUG RESEARCH AND DEVELOPMENT CO., …, priority 2006, published 2010)
Marks after values point to notes of the source that are not given here.

Tested on: hepatofibrosis in rats
Experiment: CCl4-induced hepatofibrosis in chronic hepatitis in rats
Assay type: in vivo, Sprague Dawley rats
Conditions: for T (Rank-sum test of fibrosis) / fiber proliferation level 0 (number of rats) / fiber proliferation level I (number of rats) / fiber proliferation level II (number of rats) / fiber proliferation level III (number of rats) / fiber proliferation level IV (number of rats) / HYP / HA / LN / PCIII: 6 weeks; for fiber proliferation level 0 (number of rats) / fiber proliferation level I (number of rats) / fiber proliferation level II (number of rats) / fiber proliferation level III (number of rats) / fiber proliferation level IV (number of rats): n=10; for HYP: hepatic; for HA / LN / PCIII: serum
Description: 120 rats were randomly divided into 12 groups, with 10 in each group, namely, a normal control group, a model group, […] Apart from the normal control group, all rats were s.c. injected 0.3 ml of 40% solution of CC14 in oil per 100 g of body weight once every 3 days for 6 weeks. Animals in the normal control group were s.c. injected 0.3 ml/100 g body weight of oil vehicle following the same schedule as the experimental groups. First dose was doubled for all animals. Six weeks later, drugs were continuously administered to animals in each group for 6 weeks. After the administration was completed, all animals were anaesthetised with i.p. injection of 20% ethyl carbamate solution (Beijing Tongxian District Yucai Fine Chemicals). Blood was collected from abdominal aorta. Hepatic lobule tissue was removed, part of which was fixed with 10% neutral foinialin solution and made into wax blocks within 24-48 hours. […] Serum HA, LN, Pc III levels and hepatic HYP level were determined according to the respective kit instructions.

With O=C(/C=C/c1ccc(O)c(O)c1)O[C@H](Cc1ccc(O)c(O)c1)C(=O)O [RA, R(+)2-{[3-(3,4-dihydroxylphenyl-(oxo-2-propenyl)oxy]3,4-dihydroxylphenylpropionic acid]}] the “T (Rank-sum test of fibrosis)” value (RA i.v. 2.5 mg/kg) was 82*, the “fiber proliferation level 0 (number of rats)” value (RA i.v. 2.5 mg/kg) was 0 and the “fiber proliferation level I (number of rats)” value (RA i.v. 2.5 mg/kg) was 1. For the same compound, the “fiber proliferation level II (number of rats)” value (RA i.v. 2.5 mg/kg) was 2, the “fiber proliferation level III (number of rats)” value (from here on “fiber proliferation level III”) (RA i.v. 2.5 mg/kg) was 3 and the “fiber proliferation level IV (number of rats)” value (from here on “fiber proliferation level IV”) (RA i.v. 2.5 mg/kg) was 4. For the same compound, the “T (Rank-sum test of fibrosis)” value (RA i.v. 5 mg/kg) was 81.5*, the “fiber proliferation level 0 (number of rats)” value (RA i.v. 5 mg/kg) was 0 and the “fiber proliferation level I (number of rats)” value (RA i.v. 5 mg/kg) was 1. For the same compound, the “fiber proliferation level II (number of rats)” value (RA i.v. 5 mg/kg) was 2, the “fiber proliferation level III” value (RA i.v. 5 mg/kg) was 6 and the “fiber proliferation level IV” value (RA i.v. 5 mg/kg) was 1. The “T (Rank-sum test of fibrosis)” value (RA i.v. 25 mg/kg) was 76*, the “fiber proliferation level 0 (number of rats)” value (RA i.v. 25 mg/kg) was 0 and the “fiber proliferation level I (number of rats)” value (RA i.v. 25 mg/kg) was 2. The “fiber proliferation level II (number of rats)” value (RA i.v. 25 mg/kg) was 3, the “fiber proliferation level III” value (RA i.v. 25 mg/kg) was 4 and the “fiber proliferation level IV” value (RA i.v. 25 mg/kg) was 1. The “T (Rank-sum test of fibrosis)” value (RA i.v. 75 mg/kg) was 71**, the “fiber proliferation level 0 (number of rats)” value (RA i.v. 75 mg/kg) was 0 and the “fiber proliferation level I (number of rats)” value (RA i.v. 75 mg/kg) was 3. For the same compound, the “fiber proliferation level II (number of rats)” value (RA i.v. 75 mg/kg) was 2, the “fiber proliferation level III” value (RA i.v. 75 mg/kg) was 5 and the “fiber proliferation level IV” value (RA i.v. 75 mg/kg) was 0. The “T (Rank-sum test of fibrosis)” value (RA i.v. 150 mg/kg) was 66**, the “fiber proliferation level 0 (number of rats)” value (RA i.v. 150 mg/kg) was 0 and the “fiber proliferation level I (number of rats)” value (RA i.v. 150 mg/kg) was 3. For the same compound, the “fiber proliferation level II (number of rats)” value (RA i.v. 150 mg/kg) was 4, the “fiber proliferation level III” value (RA i.v. 150 mg/kg) was 3 and the “fiber proliferation level IV” value (RA i.v. 150 mg/kg) was 0. The “T (Rank-sum test of fibrosis)” value (RA p.o. 2.5 mg/kg) was 95, the “fiber proliferation level 0 (number of rats)” value (RA p.o. 2.5 mg/kg) was 0 and the “fiber proliferation level I (number of rats)” value (RA p.o. 2.5 mg/kg) was 1. For the same compound, the “fiber proliferation level II (number of rats)” value (RA p.o. 2.5 mg/kg) was 2, the “fiber proliferation level III” value (RA p.o. 2.5 mg/kg) was 3 and the “fiber proliferation level IV” value (RA p.o. 2.5 mg/kg) was 4. For the same compound, the “T (Rank-sum test of fibrosis)” value (RA p.o. 5 mg/kg) was 77*, the “fiber proliferation level 0 (number of rats)” value (RA p.o. 5 mg/kg) was 0 and the “fiber proliferation level I (number of rats)” value (RA p.o. 5 mg/kg) was 1. For the same compound, the “fiber proliferation level II (number of rats)” value (RA p.o. 5 mg/kg) was 2, the “fiber proliferation level III” value (RA p.o. 5 mg/kg) was 7 and the “fiber proliferation level IV” value (RA p.o. 5 mg/kg) was 0. For the same compound, the “T (Rank-sum test of fibrosis)” value (RA p.o. 25 mg/kg) was 71**, the “fiber proliferation level 0 (number of rats)” value (RA p.o. 25 mg/kg) was 0 and the “fiber proliferation level I (number of rats)” value (RA p.o. 25 mg/kg) was 3. For the same compound, the “fiber proliferation level II (number of rats)” value (RA p.o. 25 mg/kg) was 2, the “fiber proliferation level III” value (RA p.o. 25 mg/kg) was 5 and the “fiber proliferation level IV” value (RA p.o. 25 mg/kg) was 0. The “T (Rank-sum test of fibrosis)” value (RA p.o. 150 mg/kg) was 66**, the “fiber proliferation level 0 (number of rats)” value (RA p.o. 150 mg/kg) was 0 and the “fiber proliferation level I (number of rats)” value (RA p.o. 150 mg/kg) was 3. The “fiber proliferation level II (number of rats)” value (RA p.o. 150 mg/kg) was 4, the “fiber proliferation level III” value (RA p.o. 150 mg/kg) was 3 and the “fiber proliferation level IV” value (RA p.o. 150 mg/kg) was 0. For the same compound, the “T (Rank-sum test of fibrosis)” value (RA p.o. 300 mg/kg) was 66**, the “fiber proliferation level 0 (number of rats)” value (RA p.o. 300 mg/kg) was 0 and the “fiber proliferation level I (number of rats)” value (RA p.o. 300 mg/kg) was 2. The “fiber proliferation level II (number of rats)” value (RA p.o. 300 mg/kg) was 5, the “fiber proliferation level III” value (RA p.o. 300 mg/kg) was 2 and the “fiber proliferation level IV” value (RA p.o. 300 mg/kg) was 1. The “liver, electronic microscopic examination” value (RA treated groups) was “hepatocyte damages were alleviated”, the “liver, light microscopic examination (HE, VG collagen staining)” value (RA treated groups) was “less fiber connective tissue hyperplasia, thinner fibrous septa and less pseudolobule formation” and the “liver fibrosis, pathology examination” value (all RA treated groups vs model group) was “less severe fibrosis”. For the same compound, the HYP (i.v. 2.5 mg/kg) was 1657 ± 124 µg/L, the HYP (i.v. 5 mg/kg) was 1630 ± 110 µg/L and the HYP (i.v. 25 mg/kg) was 1578 ± 113 µg/L. The HYP (i.v. 75 mg/kg) was 1278 ± 121 µg/L, the HYP (i.v. 150 mg/kg) was 1217 ± 143 µg/L and the HYP (p.o. 2.5 mg/kg) was 1724 ± 121 µg/L. It also gave an HYP (p.o. 5 mg/kg) of 1614 ± 121 µg/L, an HYP (p.o. 25 mg/kg) of 1535 ± 125 µg/L and an HYP (p.o. 150 mg/kg) of 1299 ± 153 µg/L. The HYP (p.o. 300 mg/kg) was 1250 ± 174 µg/L, the “fibrosis (Rank-sum test)” value (i.v. 2.5, 5, 25, 75, 150 mg/kg, p.o. 5, 25, 150, 300 mg/kg) was “can significantly reduce fibrosis” and the “HA, LN, Pc III and HYP levels vs model group” value (i.v. 2.5, 5, 25, 75, 150 mg/kg, p.o. 5, 25, 150, 300 mg/kg, p<0.05 or 0.01) was “can all significantly reduce HA, LN, Pc III, and HYP levels”. For the same compound, the HA (i.v. 2.5 mg/kg) was 111.2 ± 24.1 µg/L, the LN (i.v. 2.5 mg/kg) was 72.6 ± 19.0 µg/L and the PCIII (i.v. 2.5 mg/kg) was 36.2 ± 7.8 µg/L. The HA (i.v. 5 mg/kg) was 106.3 ± 23.4 µg/L, the LN (i.v. 5 mg/kg) was 68.3 ± 17.9 µg/L and the PCIII (i.v. 5 mg/kg) was 34.2 ± 7.6 µg/L. It also gave an HA (i.v. 25 mg/kg) of 97.5 ± 23.6 µg/L, an LN (i.v. 25 mg/kg) of 62.0 ± 20.0 µg/L and a PCIII (i.v. 25 mg/kg) of 31.4 ± 7.8 µg/L. The HA (i.v. 75 mg/kg) was 77.9 ± 20.7 µg/L, the LN (i.v. 75 mg/kg) was 57.6 ± 16.8 µg/L and the PCIII (i.v. 75 mg/kg) was 26.5 ± 9.1 µg/L. It also gave an HA (i.v. 150 mg/kg) of 74.6 ± 18.9 µg/L, an LN (i.v. 150 mg/kg) of 55.3 ± 14.6 µg/L and a PCIII (i.v. 150 mg/kg) of 25.7 ± 7.8 µg/L. It also gave an HA (p.o. 2.5 mg/kg) of 113.8 ± 24.8 µg/L, an LN (p.o. 2.5 mg/kg) of 79.1 ± 19.4 µg/L and a PCIII (p.o. 2.5 mg/kg) of 38.0 ± 7.5 µg/L. The HA (p.o. 5 mg/kg) was 104.3 ± 26.4 µg/L, the LN (p.o. 5 mg/kg) was 69.3 ± 16.9 µg/L and the PCIII (p.o. 5 mg/kg) was 33.7 ± 7.3 µg/L. For the same compound, the HA (p.o. 25 mg/kg) was 97.0 ± 24.6 µg/L, the LN (p.o. 25 mg/kg) was 61.0 ± 20.6 µg/L and the PCIII (p.o. 25 mg/kg) was 31.6 ± 7.2 µg/L. For the same compound, the HA (p.o. 150 mg/kg) was 84.9 ± 20.5 µg/L, the LN (p.o. 150 mg/kg) was 59.6 ± 16.8 µg/L and the PCIII (p.o. 150 mg/kg) was 27.5 ± 9.6 µg/L. It also gave an HA (p.o. 300 mg/kg) of 80.7 ± 18.6 µg/L, an LN (p.o. 300 mg/kg) of 57.3 ± 18.6 µg/L and a PCIII (p.o. 300 mg/kg) of 26.9 ± 10.5 µg/L.
